Read-outs that look alike come from different tables or passages of the source.
Tested on: cultured human mast cells (CHMC)
Test: CHMC low cell density IgE activation: tryptase assay
Assay type: cell-based
Settings: low cell density CHMC, IgE activation, tryptase readout
Outline: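 Fluorogenic readout of tryptase released into the supernatant (30 min substrate incubation, room temperature) measures degranulation. Cells were plated at low density (1000–1500/well, varied by donor) and triggered with anti-IgE for 30 min at 37 °C.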

[1] = Homo sapiens, Mast cell, 8 pt, read-out: LD Tryptase, CHMC, IgE, 8 pt
[2] = 8 pt, read-out: LD Tryptase, CHMC, IgE, 8 pt
[3] = Homo sapiens, Mast cell, 3 pt, read-out: LD Tryptase, CHMC, IgE, 3 pt
[4] = 3 pt, read-out: LD Tryptase, CHMC, IgE, 3 pt

Row | SMILES | IC50 [2] [µM] | also measured
1 | Cc1c(O)cccc1Nc1ncc(F)c(Nc2ccc3c(c2)NC(=O)C(C)(C)O3)n1 [Compound 1060, N4-(2,2-Dimethyl-3-oxo-4H-benz[1,4]oxazin-6-yl)-5-fluoro-N2-(3-hydroxy-2-methylphenyl)-2,4-pyrimidinediamine] |  | IC50 [1]: < 10 µM
2 | COc1cccc(Nc2ncc(F)c(Nc3ccc4c(c3)NC(=O)C(C)(C)O4)n2)c1C [Compound 1062, N4-(2,2-Dimethyl-3-oxo-4H-benz[1,4]oxazin-6-yl)-5-fluoro-N2-(3-methoxy-2-methylphenyl)-2,4-pyrimidinediamine] |  | IC50 [3]: < 10 µM
3 | COc1cccc(Nc2ncc(F)c(Nc3ccc4c(n3)NC(=O)C(C)(C)O4)n2)c1C [Compound 1065, N4-(2,2-Dimethyl-3-oxo-4H-5-pyrid[1,4]oxazin-6-yl)-5-fluoro-N2-(3-methoxy-2-methylphenyl)-2,4-pyrimidinediamine] |  | IC50 [4]: < 10 µM
4 | COC(=O)COc1cccc(Nc2ncc(F)c(Nc3ccc4c(c3)NC(=O)C(C)(C)O4)n2)c1C [Compound 1066, N4-(2,2-Dimethyl-3-oxo-4H-benz[1,4]oxazin-6-yl)-5-fluoro-N2-[3-methoxycarbonylmethyleneoxy-2-methylphenyl]-2,4-pyrimidinediamine] |  | IC50 [4]: < 10 µM
5 | CNC(=O)COc1cccc(Nc2ncc(F)c(Nc3ccc4c(c3)NC(=O)C(C)(C)O4)n2)c1C [Compound 1067, N4-(2,2-Dimethyl-3-oxo-4H-benz[1,4]oxazin-6-yl)-5-fluoro-N2-[2-methyl-3-(N-methylamino)carbonylmethyleneoxyphenyl]-2,4-pyrimidinediamine] | < 10 | 
6 | CCOC(=O)N1CCN(c2cccc(Nc3ncc(F)c(Nc4ccc5c(n4)NC(=O)CO5)n3)c2)CC1 [Compound 1070, N2-[3-(4-Ethoxycarbonylpiperazino)phenyl]-5-fluoro-N4-(3-oxo-2H,4H-5-pyrid[1,4]oxazin-6-yl)-2,4-pyrimidinediamine] | < 10 | 
7 | CC(=O)N1CCN(c2cccc(Nc3ncc(F)c(Nc4ccc5c(n4)NC(=O)CO5)n3)c2)CC1 [Compound 1071, N2-[3-(4-Acetylpiperazino)phenyl]-5-fluoro-N4-(3-oxo-2H,4H-5-pyrid[1,4]oxazin-6-yl)-2,4-pyrimidinediamine] | < 10 | 
8 | CCOC(=O)N1CCN(c2ccc(Nc3ncc(F)c(Nc4ccc5c(n4)NC(=O)CO5)n3)cc2)CC1 [Compound 1072, N2-[4-(4-Ethoxycarbonylpiperazino)phenyl]-5-fluoro-N4-(3-oxo-2H,4H-5-pyrid[1,4]oxazin-6-yl)-2,4-pyrimidinediamine] | < 10 | 
9 | CCOC(=O)N1CCN(c2cccc(Nc3ncc(F)c(Nc4ccc5c(n4)NC(=O)C(C)(C)O5)n3)c2)CC1 [Compound 1075, N4-(2,2-Dimethyl-3-oxo-4H-5-pyrid[1,4]oxazin-6-yl)-N2-[3-(4-ethoxycarbonylpiperazino)phenyl]-5-fluoro-2,4-pyrimidinediamine] | < 10 | 
10 | CC(=O)N1CCN(c2cccc(Nc3ncc(F)c(Nc4ccc5c(n4)NC(=O)C(C)(C)O5)n3)c2)CC1 [Compound 1076, N2-[3-(4-Acetylpiperazino)phenyl]-N4-(2,2-dimethyl-3-oxo-4H-5-pyrid[1,4]oxazin-6-yl)-5-fluoro-2,4-pyrimidinediamine] | < 10 | 
11 | CCOC(=O)N1CCN(c2ccc(Nc3ncc(F)c(Nc4ccc5c(n4)NC(=O)C(C)(C)O5)n3)cc2)CC1 [Compound 1077, N4-(2,2-Dimethyl-3-oxo-4H-5-pyrid [1,4]oxazin-6-yl)-N2-[4-(4-ethoxycarbonylpiperazino)phenyl]-5-fluoro-2,4-pyrimidinediamine] | < 10 | 
12 | O=C1COc2ccc(Nc3ncc(F)c(Nc4ccc5c(c4)NC(=O)CO5)n3)cc2N1 [Compound 1083, N2,N4-Bis (3-oxo-2H,4H-benz[1,4]oxazin-6-yl)-5-fluoro-2,4-pyrimidinediamine] |  | IC50 [3]: < 10 µM; IC50 [1]: < 10 µM

More lines, main results first:

Row | IC50 [2] [µM] | SMILES | also measured
13 | < 10 | COc1cccc(Nc2ncc(F)c(Nc3ccc4c(n3)NC(=O)CO4)n2)c1C [Compound 1061, 5-Fluoro-N2-(3-methoxy-2-methylphenyl)-N4-(3-oxo-2H,4H-5-pyrid[1,4]oxazin-6-yl)-2,4-pyrimidinediamine] | 
14 | < 10 | Cc1c(O)cccc1Nc1ncc(F)c(Nc2ccc3c(n2)NC(=O)CO3)n1 [Compound 1063, 5-Fluoro-N2-(3-hydroxy-2-methylphenyl)-N4-(3-oxo-2H,4H-5-pyrid[1,4]oxazin-6-yl)-2,4-pyrimidinediamine] | 
15 | < 10 | Cc1c(O)cccc1Nc1ncc(F)c(Nc2ccc3c(n2)NC(=O)C(C)(C)O3)n1 [Compound 1064, N4-(2,2-Dimethyl-3-oxo-4H-5-pyrid[1,4]oxazin-6-yl)-5-fluoro-N2-(3-hydroxy-2-methylphenyl)-2,4-pyrimidinediamine] | 
16 | < 10 | CNC(=O)COc1cccc(Nc2ncc(F)c(Nc3ccc4c(n3)NC(=O)CO4)n2)c1C [Compound 1068, 5-Fluoro-N2-[2-methyl-3-(N-methylamino)carbonylmethyleneoxyphenyl]-N4-(3-oxo-2H,4H-5-pyrid[1,4]oxazin-6-yl)-2,4-pyrimidinediamine] | 
17 | < 10 | Cc1cc(Nc2ncc(F)c(Nc3ccc4c(n3)NC(=O)CO4)n2)cc(C)c1O [Compound 1069, N2-(3,5-Dimethyl-4-hydroxyphenyl)-5-fluoro-N4-(3-oxo-2H,4H-5-pyrid[1,4]oxazin-6-yl)-2,4-pyrimidinediamine] | 
18 | < 10 | O=C1COc2ccc(Nc3nc(Nc4cccc(N5CCOCC5)c4)ncc3F)nc2N1 [Compound 1073, 5-Fluoro-N2-(3-morpholinophenyl)-N4-(3-oxo-2H,4H-5-pyrid[1,4]oxazin-6-yl)-2,4-pyrimidinediamine] | 
19 | < 10 | CN1CCN(c2cccc(Nc3ncc(F)c(Nc4ccc5c(n4)NC(=O)CO5)n3)c2)CC1 [Compound 1074, 5-Fluoro-N2-[3-(4-methylpiperazino)phenyl]-N4-(3-oxo-2H,4H-5-pyrid[1,4]oxazin-6-yl)-2,4-pyrimidinediamine] | 
20 | < 10 | CC1(C)Oc2ccc(Nc3nc(Nc4cccc(N5CCOCC5)c4)ncc3F)nc2NC1=O [Compound 1078, N4-(2,2-Dimethyl-3-oxo-4H-5-pyrid[1,4]oxazin-6-yl)-5-fluoro-N2-(3-morpholinophenyl)-2,4-pyrimidinediamine] | 
21 | < 10 | CNC(=O)COc1cccc(Nc2ncc(F)c(Nc3ccc4c(n3)NC(=O)C(C)(C)O4)n2)c1C [Compound 1079, N4-(2,2-Dimethyl-3-oxo-4H-5-pyrid [1,4]oxazin-6-yl)-5-fluoro-N2-[2-methyl-3-(N-methylamino)carbonylmethyleneoxyphenyl]-2,4-pyrimidinediamine] | 
22 | < 10 | CN1CCN(c2cccc(Nc3ncc(F)c(Nc4ccc5c(n4)NC(=O)C(C)(C)O5)n3)c2)CC1 [Compound 1080, N4-(2,2-Dimethyl-3-oxo-4H-5-pyrid [1,4]oxazin-6-yl)-5-fluoro-N2-[3-(4-methylpiperazino)phenyl]-2,4-pyrimidinediamine] | 
23 | < 10 | COc1ccc(Nc2ncc(F)c(Nc3ccc4c(n3)NC(=O)[C@H](C)O4)n2)cc1Cl [Compound 1081, (S)-N2-(3-Chloro-4-methoxyphenyl)-5-fluoro-N4-(2-methyl-3-oxo-2H,4H-5-pyrid[1,4]oxazin-6-yl)-2,4-pyrimidinediamine] | IC50 [4]: < 10 µM
24 | < 10 | COc1cc(Nc2ncc(F)c(Nc3ccc4c(n3)NC(=O)[C@H](C)O4)n2)cc(OC)c1OC [Compound 1082, (S)-5-Fluoro-N4-(2-methyl-3-oxo-2H,4H-5-pyrid[1,4]oxazin-6-yl)-N2-(3,4,5-trimethoxyphenyl)-2,4-pyrimidinediamine] | IC50 [4]: < 10 µM

— patent US20220073536A1 (Rigel Pharmaceuticals, Inc., priority 2003, published 2022)
